Measured values published in PubChem BioAssay (NCI).
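Growth conditions: 96-well plates. Treatment: test compound, 48 hours, 5 concentrations. Analysis: linear interpolation between bracketing concentrations; unreached endpoints set to highest concentration. GI50 is the concentration that inhibits growth by half. Definition used: TGI = concentration required for complete inhibition of growth.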

Experiments:
Test in all cases: NCI tumour cell line growth inhibition, 48 h
[1] = system: PC-3 prostate
[2] = system: HCT-15 colon
[3] = system: COLO 205 colon
[4] = system: UACC-257 melanoma
[5] = system: 786-0 renal
[6] = system: MDA-MB-435
[7] = system: M14 melanoma
[8] = system: SK-MEL-5 melanoma
[9] = system: SW-620 colon
[10] = system: U251 CNS

Structure (SMILES)	GI50 [1] [µM]	TGI [1] [µM]	GI50 [2] [µM]	TGI [2] [µM]	GI50 [3] [µM]	TGI [3] [µM]	GI50 [4] [µM]	TGI [4] [µM]	GI50 [5] [µM]	TGI [5] [µM]	GI50 [6] [µM]	TGI [6] [µM]	GI50 [7] [µM]	TGI [7] [µM]	GI50 [8] [µM]	TGI [8] [µM]	GI50 [9] [µM]	TGI [9] [µM]	TGI [10] [µM]	GI50 [10] [µM]
O=C(NC1CCCCC1)c1ccc(Nc2ncnc3c2cnn3-c2ccccc2)cc1	11.8	44.8	99.3	> 100	12.5	> 100	6.42	> 100	3.47	18.3	67.8	> 100	18.3	> 100	21.7	> 100	> 100	> 100	–	–
CC(C)(C)OC(=O)N1C2CCCC23O[C@@H]1c1cc2c(cc1C3=O)OCO2 (stereo partly specified)	–	–	–	–	–	–	–	> 100	–	> 100	–	–	–	> 100	–	26.1	–	> 100	> 100	–
NC(=S)N/N=C1\CCCC\C1=C/c1ccccc1	–	–	–	> 100	–	> 100	–	44.4	–	> 100	–	–	–	> 100	–	–	–	> 100	> 100	–
CCOc1ccc(N=Cc2c3ccccc3nc3ccccc23)cc1	–	–	–	> 100	–	> 100	–	> 100	–	> 100	–	–	–	> 100	–	> 100	–	> 100	> 100	–
CCCCCCCCCCCCCCCCCCC1=C(O)C(=O)C=C(OC)C1=O	–	–	–	97.5	–	> 100	–	> 100	–	> 100	–	–	–	> 100	–	> 100	–	> 100	> 100	–
NCCN.O=C([O-])[O-].O=C([O-])[O-].[Co+3].[K+]	–	–	> 100	> 100	> 100	> 100	> 100	> 100	> 100	> 100	–	–	> 100	> 100	> 100	> 100	> 100	> 100	> 100	> 100
CC(=O)[CH-]C(=O)c1ccccc1.CC(=O)[CH-]C(=O)c1ccccc1.O=S(=O)([O-])c1cc([O-])c2c([O-])cc(S(=O)(=O)[O-])cc2c1.[Na+].[Ti+4]	–	–	> 100	> 100	–	–	77.1	> 100	> 100	> 100	–	–	> 100	> 100	> 100	> 100	> 100	> 100	> 100	97.8
CSc1ccc2c(cc1=O)[C@@H](NC(=O)c1cc(O)c(O)c(O)c1)CCc1cc(O)c(O)c(O)c1-2	–	–	–	41.4	–	75.3	–	34.3	–	> 100	–	–	–	36.6	–	36.1	–	39.6	37.7	–
C[P+](C)(C)c1ccccc1	–	–	–	> 100	–	> 100	–	> 100	–	> 100	–	–	–	> 100	–	> 100	–	> 100	> 100	–
O=C1CC2CCN(C(=O)c3ccccc3)CC2CCN1 (stereo unspecified)	–	–	–	> 100	–	> 100	–	> 100	–	> 100	–	–	–	> 100	–	> 100	–	> 100	> 100	–
C=CCC1(C)CCCCC1(O)CS(=O)c1ccccc1 (stereo unspecified)	–	–	–	> 100	–	> 100	–	> 100	–	> 100	–	–	–	> 100	–	> 100	–	> 100	> 100	–
COc1cc(/C=C2\CCC/C(=C\c3ccc(OCC4CO4)c(OC)c3)C2=O)ccc1OCC1CO1 (stereo unspecified)	3.13	45.7	2.04	4.59	2	3.54	1.82	3.91	2.04	3.85	–	–	1.94	3.99	1.74	3.52	2.46	5.09	5.27	2.11
C1=NC(N(Cc2ccccc2)Cc2ccccc2)N(Cc2ccccc2)N1 (stereo unspecified)	–	–	–	34.4	–	30.8	–	33.5	–	35.4	–	–	–	23.1	–	27.3	–	49.9	32.1	–
Nc1ccc(C2=N/C(=C\c3cccc(N)c3)C(=O)O2)cc1	–	–	–	> 100	–	> 100	–	–	–	> 100	–	–	–	> 100	–	> 100	–	> 100	> 100	–
COc1cc(C(=O)O[C@H](C(N)=O)[C@]2(C)CO2)c2cccc(C)c2c1	–	2.76	0.282	2.82	–	11.4	1.49	> 21.3	2.31	5.75	< 0.0215	0.126	2.13	4.84	< 0.0158	0.0522	< 0.01	1.72	–	–
COc1ccc(-c2noc(N)c2-c2cc(OC)c3c(c2)OCO3)cc1	3.36	> 100	0.616	> 100	2.34	9.41	5.87	> 100	8.36	> 100	–	–	1.3	7.02	3.14	21.2	0.677	> 100	> 100	3.7
Cc1ccc(N2C(=O)N(c3ccc(C)cc3)C3(SC=NN3C)C2=O)cc1 (stereo unspecified)	–	–	–	–	–	> 100	–	> 100	–	> 100	–	–	–	> 100	–	> 100	–	> 100	> 100	–
Cn1cc(-c2csc(-c3cn(C)c4ccc(F)cc34)n2)c2cnccc21	1.71	3.31	1.68	3.27	–	–	1.8	3.26	1.51	2.96	1.67	3.1	1.72	3.21	1.66	3.05	1.88	3.59	3.23	1.8
CCOC(=O)C(C)(c1c(C)[nH]c2ccccc12)c1c(C)[nH]c2ccccc12	–	–	–	32.5	–	–	–	28	–	43	–	–	–	29.8	–	31.1	–	40.8	33.4	–
CCc1nc(Cl)c(Cl)c(Cl)n1	–	> 100	–	> 100	–	–	–	> 100	–	> 100	–	> 100	–	> 100	–	> 100	–	> 100	> 100	–
Cc1c2c(C(N)=O)nccc2c(C)c2c1c1ccccc1n2Cc1ccccc1	–	27.7	–	44.2	–	–	–	> 100	–	15.9	–	> 100	–	> 100	–	67.5	–	50	24.9	–

Structure (SMILES)	GI50 [1] [µM]	TGI [1] [µM]	GI50 [2] [µM]	TGI [2] [µM]	GI50 [3] [µM]	TGI [3] [µM]	GI50 [4] [µM]	TGI [4] [µM]	GI50 [5] [µM]	TGI [5] [µM]	GI50 [6] [µM]	TGI [6] [µM]	GI50 [7] [µM]	TGI [7] [µM]	GI50 [8] [µM]	TGI [8] [µM]	GI50 [9] [µM]	TGI [9] [µM]	TGI [10] [µM]	GI50 [10] [µM]
O=C1c2ccccc2C(=O)N1C/C=N/NS(=O)(=O)c1ccc(Br)cc1	–	–	–	> 100	–	> 100	–	> 100	–	> 100	–	–	–	> 100	–	> 100	–	> 100	> 100	–
C[Si](C)(C)CN1C(=O)c2ccccc2C1(O)c1ccccc1 (stereo unspecified)	–	–	–	> 100	–	> 100	–	> 100	–	> 100	–	–	–	> 100	–	> 100	–	> 100	> 100	–
CC1CCC(C(C)(C)c2ccccc2)C(=O)C1 (stereo unspecified)	–	–	–	> 100	–	> 100	–	> 100	–	> 100	–	–	–	> 100	–	> 100	–	> 100	> 100	–
O=C1c2ccc3c4ccccc4n(-c4ccccc4)c3c2C(=O)N1c1ccc(Cl)cc1	–	–	–	> 100	–	> 100	–	> 100	–	> 100	–	–	–	> 100	–	> 100	–	> 100	> 100	–
COc1ccc(/C=N/N=C(\N)NO)c(OC)c1C	–	–	–	> 100	–	30.7	–	> 100	–	67.7	–	–	–	–	–	–	–	> 100	> 100	–
O=C1/C(=C/N2N=C(c3ccc4ccccc4c3)CC2c2ccccc2O)SC(=S)N1c1cccnc1 (stereo unspecified)	0.518	> 100	0.428	> 100	1.88	> 100	–	–	0.492	> 100	0.481	3.17	0.84	> 100	3.01	39	0.365	> 100	61	0.897
COC(=O)[C@]12CC[C@@H](C)[C@H](C)[C@@H]1C1=CC[C@@H]3[C@@]4(C)C(C=O)=C[C@@](C)(COC(=O)c5ccco5)[C@@H]4[C@H](O)C[C@@]3(C)[C@]1(C)CC2	1.29	7.55	1.51	3.09	0.0493	0.355	0.263	0.997	2.4	7.13	–	–	0.305	2.6	0.453	1.65	2.86	8.32	2.91	1.41
CN(C)CCNc1nc2ccccc2c2c(=O)c3cc(F)ccc3sc12	1.7	3.37	1.57	3.08	2.13	4.86	2.12	4.16	1.47	2.91	1.66	3.06	1.9	3.55	1.7	3.08	1.67	3.23	–	–
COc1ccc(-c2cc(-c3ccc(Nc4ccnc5cc(Cl)ccc45)cc3)nc(N3CCOCC3)n2)cc1	–	–	–	–	3.14	> 100	–	–	2.26	5.72	2.92	> 100	2.81	> 100	–	–	–	–	–	–
C1COCCSC2=C(SCCO1)SC(=C1SC3=C(SCCOCCOCCS3)S1)S2	–	–	–	> 100	–	> 100	–	> 100	–	> 100	–	–	–	> 100	–	> 100	–	> 100	> 100	–
COc1cc(-c2nnc3n2NC=C(C(=O)O)S3)cc(OC)c1OC	–	–	–	> 67.5	–	> 70.3	–	> 100	–	> 76.3	–	–	–	> 100	–	> 100	–	> 62	> 100	–
NC(CCc1ncc(C(=O)O)s1)C(=O)O (stereo unspecified)	–	–	–	> 100	–	> 100	–	> 100	–	> 100	–	–	–	> 100	–	> 100	–	> 100	> 100	–
CCOC(=O)C1=C(Nc2ccc(Br)cc2)OCC1=O	–	–	–	> 100	–	> 100	–	> 100	–	> 100	–	–	–	> 100	–	> 100	–	> 100	> 100	–
COc1ccc2nc3cc(Cl)ccc3c(Sc3ccc(NC(C)=O)cc3)c2c1	–	–	–	–	–	> 34.2	–	> 41	–	> 20.1	–	–	–	> 38.5	–	> 45.5	–	> 22.3	> 20.7	–
Cc1c(Cl)cccc1NC(=O)c1cccc([N+](=O)[O-])c1O	–	–	–	> 100	–	27.3	–	38.8	–	> 78.1	–	–	–	> 78.9	–	15.5	–	> 100	77.5	–
N#CC(C#N)=C1CCCOc2c1ccc1ccccc21	39.8	> 100	> 100	> 100	> 100	> 100	–	–	88.2	> 100	> 100	> 100	> 100	> 100	–	–	> 100	> 100	–	–
CC12CCC(=O)N1c1cccnc1N2 (stereo unspecified)	–	–	–	> 100	–	> 100	–	> 100	–	> 100	–	–	–	> 100	–	> 100	–	> 100	> 100	–
COC(=O)c1c[nH]cc1CCCCc1c[nH]cc1C(=O)OC	–	–	–	–	–	> 100	–	> 100	–	> 100	–	–	–	–	–	–	–	> 100	> 100	–
COc1cc(/C=N\O[Si](C)(C)C(C)(C)C)ccc1O[Si](C)(C)C(C)(C)C	–	–	–	82.3	–	> 100	–	> 100	–	> 100	–	–	–	> 100	–	> 100	–	> 100	71.5	–
C=CCn1c(SCC(=O)Nc2ccc(C(=O)/C=C/c3cc(OC)c(OC)c(OC)c3)cc2)nnc1-c1ccc(OC)cc1	0.642	> 100	0.277	1.26	0.399	3.83	–	–	0.583	2.61	0.327	1.6	0.404	2.58	0.79	2.27	0.397	> 47.4	0.939	0.289
